These results are taken from article PMC10252594 (Cancers, 2023).

Assay [1] deals with LAPC-4 xenografts. The source says:
The xenograft experiment was approved by the Université Laval Animal Care Committee (Comité de Protection des Animaux de l’Université Laval, Québec, QC, Canada) and carried out in an animal facility approved by the Canadian Council on Animal Care (CCAC). Homozygous male Balb/c athymic nude mice (~42 days old, weighing approximately 28 g) were obtained from Charles River Inc. (Saint-Constant, QC, Canada) and housed (4 to 5) in vinyl micro-isolated ventilated cages equipped with air lids. Cages were kept in laminar airflow hoods and maintained in pathogen-limiting conditions. The animals were housed under a controlled environment at 22 ± 3 °C with 50 ± 20% relative humidity and light set at 12 h/day (light on at 07:15) during the acclimatization and study periods. Sterile water and rodent food (Rodent Diet #T.2018.15, Harlan Teklad, Madison, WI, USA) were provided ad libitum.
After an acclimatization period of 5 days, the mice were inoculated into both flanks by subcutaneous (SC) injection of 4 × 10^6 LAPC-4 cells (Passage 14) in 0.1 mL of growth medium containing 50% Matrigel (BD Biosciences, Mississauga, ON, Canada) via a 2.5-cm long 22-gauge needle. Two weeks later, mice that developed tumors were randomized according to tumor volume, divided into […] groups (Gr-1 to Gr-8), and treated over a period of 28 days. A bilateral orchiectomy was performed under isoflurane-induced anesthesia for Gr-1 but not for Gr-2 to Gr-8. Both Gr-1 (CTX control (CTL), 9 mice, 16 tumors) and Gr-2 (intact CTL, 9 mice, 18 tumors) were treated with 0.1 mL of the vehicle alone (8% DMSO/92% propylene glycol (PG) administered by gavage (PO). Gr-3 (30 mg/kg/PO, 10 mice, 19 tumors) received 0.843 mg of RM-581. Gr-4 (10 mg/kg/PO, 10 mice, 20 tumors) received 0.281 mg of RM-581. Gr-5 (3 mg/kg/PO, 10 mice, 18 tumors) received 0.084 mg of RM-581. Gr-6 (60 mg/kg/SC, 9 mice, 18 tumors) received 1.686 mg of abiraterone. Gr-7 (60 mg/kg/PO, 9 mice, 17 tumors) received 1.686 mg of abiraterone acetate. Gr-8 (4 mg/kg/IP, 9 mice, 17 tumors) received 0.112 mg of docetaxel.
RM-581 and abiraterone acetate were administered six days a week PO; abiraterone was administered six days a week SC; and docetaxel was administered twice a week by intraperitoneal (IP) injection. RM-581 was first dissolved in DMSO, and thereafter we added PG to obtain the appropriate concentration in the vehicle fluid (8% DMSO/92% PG). Abiraterone acetate and abiraterone were dissolved in 0.3% hydroxypropyl cellulose in saline (0.9% NaCl), while docetaxel was first dissolved in DMSO, and thereafter we added phosphate-buffered saline (PBS) to obtain the proper concentration in the carrier fluid (0.5% DMSO/99.5% PBS). All solutions were prepared one day prior to the initiation of treatment and stored at 4 °C under constant agitation.
The mice were weighed at the start and end of the protocol. Tumor area (mm^2) was calculated twice a week using two perpendicular diameters (L and W), which were recorded using a caliper, and the formula L/2 × W/2 × π. The area measured on the first day of treatment was fixed at 100%. At the end of the studies and 3 h after the last treatment, the mice were terminally anesthetized, and their final body weights were measured. Tumors, liver, kidney, and total prostate were collected from mice during necropsy, while blood was collected by cardiac puncture. Tissues and plasma were immediately frozen at −80 °C until analysis.

Assay [2] deals with androgen-dependent and androgen-independent PC cell lines. Particulars: cited from earlier work.
Assay [3] concerns LAPC-4 cells. As to the kind of experiment: LAPC-4 cell viability proliferation and combination index assays (MTS, 6 days). It counts as cell-based, human. Particulars: LAPC-4, six days. As to the method: LAPC-4 cells (1 × 10^4 cells/well) were seeded in triplicate in 96-well plates in IMDM (Iscove’s modified Dulbecco’s medium) (90 μL) supplemented (v/v) with 5% fetal FBS, 1% L-glutamine, 1% insulin, and 1% penicillin/streptomycin. The cells were incubated at 37 °C in a 5% CO2 humidified atmosphere for 24 h. […] After 6 days of incubation, the cell proliferation was determined by adding 10 µL of MTS followed by incubation at 37 °C for 4 h. Plates were then analyzed at 490 nm using a Tecan M-200 microplate reader (Männedorf, Switzerland). Using GraphPad Prism 7 software, the IC50 values were calculated. The values represent the average of two independent experiments performed in triplicate. According to the Chou–Talalay method and using the following formula, the CI (combination) was calculated. CI=(D)1/(DX)1+(D)2/(DX)2
Denominators (DX)l and (DX)2 are the doses of individual drugs required to achieve a given effect level, and numerators (D)1 and (D)2 are the concentrations of each drug present in combination to trigger the same effect level. When the drugs interact additively, CI = 1, but a CI < 1 indicates a synergistic interaction, and a CI > 1 indicates an antagonistic effect.

The test system of assay [4] is LAPC-4 cells. As to the kind of experiment: Total cholesterol in LAPC-4 cells (kit). Type of assay: cell-based, human. Particulars: 18, 36, or 72 h; RM-581 2 μM or atorvastatin 10 μM. The protocol:
A cholesterol quantification kit provided by Sigma-Aldrich (Catalog Number MAK043) was used following the manufacturer’s instructions to determine the concentration of total cholesterol, free cholesterol, and cholesteryl ester in samples. The cholesterol contents were measured in samples from two different protocols. […] Secondly, in tumor, liver, and plasma obtained at the end of the LAPC-4 xenograft experiment (control group and the group treated with RM-581 at 10 mg/kg/PO).

Assay [5] has as its system LAPC-4 cells. As to the kind of experiment: Gene expression study by qPCR. It counts as cell-based, human. The following applies: RM-581 5 µM or atorvastatin 10 µM, CTL fixed at 1.0. As to the method: LAPC-4 cells (3 × 10^5) were treated with RM-581 (1, 2, and 5 µM) at different times (6, 18, 24, and 36 h) and the expression of various genes was determined as previously reported. Primer sequences used for the analysis of each gene are reported in Table S3 (Supplementary Materials).
For orientation: Real-time PCR tracks product formation cycle by cycle.

Assay [6] deals with PC-3 xenograft. Also noted: method as in PMID 34681843. Particulars: PC-3 xenograft, 4 mg/kg IP; cited from earlier work.
For assay [7], the system named is PC-3 (AR−) cells. Also noted: method as in earlier work. Particulars: ref 52 Furuya et al.; cited from earlier work.
Assay [8] has as its system LNCaP (AR+) cells. On the set-up: method as in earlier work. The following applies: ref 52 Furuya et al.; cited from earlier work.

Molecules are shown by their SMILES. Marks after values point to notes of the source that are not given here.

Broadly, the IC50 is the concentration that inhibits the measured activity by half. In the case of `CC(=O)O[C@H]1CC[C@@]2(C)C(=CC[C@@H]3[C@@H]2CC[C@]2(C)C(c4cccnc4)=CC[C@@H]32)C1` [abiraterone acetate, reference compound], the “effect on tumor compared to intact group” value in assay [1] (60 mg/kg PO, day 28) is recorded as “no longer significant”. Also, the IC50 in assay [2] is above 10 µM.
For the molecule `C[C@]12CC[C@H](O)CC1=CC[C@@H]1[C@@H]2CC[C@]2(C)C(c3cccnc3)=CC[C@@H]12` [abiraterone, reference compound], the “day of significantly different effect vs intact control” value in assay [1] (60 mg/kg SC) amounted to 18 days. For the same molecule, in assay [1] (60 mg/kg SC, 6 days a week, day 28), the “tumor reduction compared to intact control group” value is reported as 40%. Moreover, in assay [3] (Homo sapiens, LAPC4, 144 h, single drugs and 1:1 combinations, read-out: IC50 (Figure 2B)), the IC50 turned out to be 11.5 µM.
Regarding `CC(C)c1c(C(=O)Nc2ccccc2)c(-c2ccccc2)c(-c2ccc(F)cc2)n1CC[C@@H](O)C[C@@H](O)CC(=O)O` [atorvastatin, reference compound], in assay [4], the “Total cholesterol in LAPC-4 cells vs untreated cells” value is listed as “did not show a significant difference”. For the same molecule, in assay [5] (6 h), the “ACAT1 mRNA expression” value was determined as 1.0, the “ACLY mRNA expression” value is 1.0, the “FASN mRNA expression” value was 1.2 and the “HMGCR mRNA expression” value is 1.4 *. Also, in assay [5] (6 h), the “HMGCS1 mRNA expression” value stood at 1.3, the “LDLR mRNA expression” value is 1.0, the “MVD mRNA expression” value was 1.6 * and the “MVK mRNA expression” value was 1.5. Also, in assay [5] (6 h), the “SCD1 mRNA expression” value is on record as 1.4. Further, in assay [5] (18 h), the “ACAT1 mRNA expression” value turned out to be 1.0, the “ACLY mRNA expression” value turned out to be 1.2, the “FASN mRNA expression” value is recorded as 1.3 and the “HMGCR mRNA expression” value is 1.8 *. Besides, in assay [5] (18 h), the “HMGCS1 mRNA expression” value was 3.5 *, the “LDLR mRNA expression” value is 1.8 *, the “MVD mRNA expression” value is listed as 2.6 * and the “MVK mRNA expression” value is on record as 2.0 *. Besides, in assay [5] (18 h), the “SCD1 mRNA expression” value is 1.6 *. In addition, in assay [5] (24 h), the “ACAT1 mRNA expression” value is listed as 1.0, the “ACLY mRNA expression” value is recorded as 1.9 *, the “FASN mRNA expression” value is listed as 1.7 * and the “HMGCR mRNA expression” value is given as 2.6 *. Besides, in assay [5] (24 h), the “HMGCS1 mRNA expression” value is recorded as 2.7 *, the “LDLR mRNA expression” value is recorded as 1.8 *, the “MVD mRNA expression” value was 3.5 * and the “MVK mRNA expression” value was 2.5 *. Besides, the “SCD1 mRNA expression” value in assay [5] (24 h) was 2.6 *. In assay [5] (36 h), the “ACAT1 mRNA expression” value is on record as 1.1, the “ACLY mRNA expression” value is given as 2.2 *, the “FASN mRNA expression” value is recorded as 1.8 * and the “HMGCR mRNA expression” value is 3.5 *. Moreover, in assay [5] (36 h), the “HMGCS1 mRNA expression” value was 2.0 *, the “LDLR mRNA expression” value was 2.5 *, the “MVD mRNA expression” value is on record as 4.0 * and the “MVK mRNA expression” value was 2.5 *. In addition, the “SCD1 mRNA expression” value in assay [5] (36 h) is on record as 4.5 *.
Take `CC(=O)O[C@@]12CO[C@@H]1C[C@H](O)[C@@]1(C)C(=O)[C@H](O)C3=C(C)[C@@H](OC(=O)[C@H](O)[C@@H](NC(=O)OC(C)(C)C)c4ccccc4)C[C@@](O)([C@@H](OC(=O)c4ccccc4)[C@H]21)C3(C)C` [docetaxel, reference compound]: the “effect on tumor growth” value in assay [1] (4 mg/kg IP twice a week) was “no significant effect”. Moreover, in assay [3] (between 0.01 and 10 µM), the cell growth plateau result is reported as “around 25%”. Further, in assay [6], the “block of tumor growth” value is 35%.
As for `CCC(C)(C)C(=O)O[C@H]1C[C@@H](C)C=C2C=C[C@H](C)[C@H](CC[C@@H]3C[C@@H](O)CC(=O)O3)[C@H]21` [simvastatin], in assay [7], the LDLR expression result is recorded as “decreased” and the intracellular cholesterol ratio result was “decreased”. In addition, in assay [8], the LDLR expression entry is on record as “increased” and the intracellular cholesterol ratio entry is “without affecting”.
